Test results: patent US5536497A, “Fimbrial polypeptides useful in the prevention of periodontitis” (priority 1992, dated 1996)
Read-outs that look alike come from different tables or passages of the source. Square brackets hold non-standard residues; d marks the D form. Peptide text beside a SMILES is read from it. * marks the point of attachment. Sta = CC(C)C[C@H](N)[C@@H](O)CC(=O)O; Isovaleryl = CC(C)CC(=O)*

B1: Trypsin, bovine pancreas type XIII-TPCK: trypsin from bovine pancreas, type XIII, TPCK treated (protein, UniProt P00760 24-246, looked up)
Serine protease 1: IVGGYTCGANTVPYQVSLNSGYHFCGGSLINSQWVVSAAHCYKSGIQVRLGEDNINVVEGNEQFISASKSIVHPSYNSNTLNNDIMLIKLKSAASLNSRVASISLPTSCASAGTQCLISGWGNTKSSGTSYPDVLKCLKAPILSDSSCKSAYPGQITSNMFCAGYLEGGKDSCQGDSGGPVVCSGKLQGIVSWGSGCAQKNKPGVYTKVCNYVSWIKQTIASN
modifications: TPCK treated

System: P. gingivalis 2561 binding to sHAP beads
Test: microbe, parasite or virus in culture
Assay type: cell-based, Porphyromonas gingivalis
[1] = Table 2, amount 0.1 mg, minus = enhancement of binding

| Molecule | Inhibition (%) [1] | other results |
| --- | --- | --- |
| CC(=O)N[C@H]1C(O)O[C@H](CO)[C@@H](O)[C@@H]1O (some centres unmarked) [N-Acetylglucosamine] | -15% | – |
| CC(=O)N[C@H]1C(O)O[C@H](CO)[C@H](O)[C@@H]1O (some centres unmarked) [N-Acetylgalactosamine] | -5% | – |
| C[C@H](O)[C@@H](O)[C@@H](O)[C@H](O)C=O [Fucose] | 1% | – |
| O=S(=O)(F)Cc1ccccc1 [Phenylmethylsulfonyl fluoride] | – | Inhibition (%) (Table 2, conc. 2 mM): 13% |
| O=C[C@H](O)[C@@H](O)[C@@H](O)[C@H](O)C(=O)O [D-Galacturonic acid] | 21% | – |
| Defatted BSA: defatted BSA, agent tested in Table 2 | – | Inhibition (%) (Table 2, amount l mg): 43% |
| Poly-L-lysine | – | Inhibition (%) (Table 2, amount 0.25 mg): 41% |
| CC(=O)N[C@@H](CC(C)C)C(=O)N[C@@H](CC(C)C)C(=O)N[C@H](C=O)CCCNC(=N)N [Leupeptin] | – | inhibition at 2 µM (Porphyromonas gingivalis): 19% |
| O=C[C@H](O)[C@@H](O)[C@@H](O)[C@H](O)CO [Galactose] | -7% | – |
| CC(C)CC(=O)N[C@H](C(=O)N[C@H](C(=O)N[C@@H](CC(C)C)[C@@H](O)CC(=O)N[C@@H](C)C(=O)N[C@@H](CC(C)C)[C@@H](O)CC(=O)O)C(C)C)C(C)C [Pepstatin] (Isovaleryl-VV[Sta]A[Sta]-OH) | – | inhibition at 1 µM (Porphyromonas gingivalis): -10% |
| OC[C@H]1O[C@H](O[C@H]2[C@H](O)[C@@H](O)[C@H](O)O[C@@H]2CO)[C@H](O)[C@@H](O)[C@@H]1O [Maltose] | -8% | – |
| O=C[C@H](O)[C@@H](O)[C@H](O)[C@H](O)C(=O)O [D-Glucuronic acid] | 33% | – |
| N[C@H]1C(O)O[C@H](CO)[C@H](O)[C@@H]1O (some centres unmarked) [Galactosamine] | 8% | – |
| O=C[C@H](O)[C@@H](O)[C@H](O)[C@H](O)CO [Glucose] | -10% | – |
| O=C(O)CN(CCN(CC(=O)O)CC(=O)O)CC(=O)O [EDTA] | – | Inhibition (%): 24 |
| OC[C@H]1O[C@@H](O[C@H]2[C@H](O)[C@@H](O)C(O)O[C@@H]2CO)[C@H](O)[C@@H](O)[C@H]1O (some centres unmarked) [Lactose] | -1% | – |
| c1cnc2c(c1)ccc1cccnc12 [1,10-Phenanthroline] | – | inhibition at 1000 µM (Porphyromonas gingivalis): -8% |
| N-Acetyl neuramin-lactose | 2% | – |
| N[C@H]1C(O)O[C@H](CO)[C@@H](O)[C@@H]1O (some centres unmarked) [Glucosamine] | 0% | – |
| N=C(N)NCCC[C@H](N)C(=O)O [L-Arginine] | 0% | – |
| O=C[C@@H](O)[C@@H](O)[C@H](O)[C@H](O)CO [Mannose] | -15% | – |
| CC(=O)N[C@H]1[C@H]([C@H](O)[C@H](O)CO)OC(O)(C(=O)O)C[C@@H]1O (some centres unmarked) [Sialic acid (N-acetyl neuraminic acid), N-acetyl neuraminic acid] | 28% | – |
| poly-2,8-N-acetyl neuraminic acid | 13% | – |
| NCCCC[C@H](N)C(=O)O [L-Lysine] | 5% | – |
| B1 | – | Inhibition (%) (Table 2, amount 100 U): 53%; Reduction of P. gingivalis binding after pretreatment of sHAP beads (sHAP beads pretreated with enzyme prior to being mixed with P. gingivalis cells): approximately 50% |
